Test results as given in patent US12157713B2, “Conjugated oligoelectrolytes as antimicrobial agents” (Nanyang Technological University, priority 2018, dated 2024).
Values joined by “and” are separate entries in the source; they are usually repeats but may differ in a detail not shown here. Equal values may be shown once. Read-outs that look alike come from different tables or passages of the source.

Tests used:
[1] = system: Klebsiella pneumoniae MDR ATCC 700603; assay: Single-dose growth inhibition, Kp; format: cell-based
Protocol: Inhibition of bacterial growth was determined by measuring the absorbance at 600 nm (OD600), using a Tecan M1000 Pro monochromator plate reader. Growth inhibition was calculated for each well, relative to the reference growths determined from a negative control (media only) and positive control (bacteria without inhibitors) incubated in the same plate. A single dose of 32 μg/mL of COE (final concentration) was used for each test.
(§1) Percentage growth inhibition of an individual sample was calculated based on growth in a reference well determined from negative controls (media only) and positive controls (bacterial/fungal media without inhibitors). Negative inhibition values indicate that the growth rate (or OD600) is higher compared to the reference growth (bacteria/fungi only, set to 0% inhibition). The growth rates for all bacteria and fungi may vary at −/+10%, which were within the reported normal distribution of bacterial/fungal growth. Any significant variations (or outliers/hits) were identified by the modified Z-Score, and the active compounds were selected by a combination of inhibition values and Z-Score.
(§2) A M(i) value of >|2.5| (absolute) would classify the sample as outliers or hits. Active samples were denoted as compounds with inhibition values equal to or above 80% and absolute Z-Score above |2.5| for either replicate (n=2 on different plates). Partial active samples were denoted as compounds with inhibition values from 50% to <80%, or absolute Z-Score below |2.5|.

[2] = system: organism classes (Gram-negative, Gram-positive and fungi); assay: Single-dose screening summary by organism class; format: cell-based; details: 32 μg/mL; 0 = no activity
Protocol: as §1
Z-Score analysis was carried out to investigate outliers or hits among the samples. The Z-Score was calculated based on the sample population using a modified Z-Score method which accounts for possible skewed sample population. The modified method uses median and MAD ([…]) instead of average and standard deviation, and a scaling factor (Iglewicz, B. & Hoaglin, D. C. Volume 16: How to Detect and Handle Outliers. The ASQC Basic Reference in Quality Control: Statistical Techniques, 1993). The equation to calculate the modified Z-Score value is as follow: […]
as §2

E. coli K12 [3] = assay: Cellular uptake by E. coli K12 (absorption spectroscopy); format: cell-based, Escherichia coli; details: for Uptake by E. coli K12: 10 μg/mL COE in PBS, OD=0.5, 2 hrs, room temperature; for Uptake by E. coli K12 at 4° C.: 10 μg/mL COE, 2 hrs, 4° C. (below membrane phase transition temperature)
Protocol: The relative membrane affinity of COE-D4, COE-D6 and COE-D8 was estimated from the quantity taken up by cells using absorption spectroscopy. After cultures of E. coli K12 were grown in MHB at 37° C., the cells were harvested by centrifugation (6000 rpm, 5 min) and washed twice with PBS solution (pH=7.2). The cells were then resuspended in PBS and with the density adjusted to OD=1.0. Thereafter, 5 mL of this cell suspension was mixed with an equal volume of 20 μg/mL of COE in PBS to achieve a final concentration of 10 μg/mL (in triplicates). After exposure to COEs for 2 hrs at room temperature and with shaking (200 rpm), the cells were removed by centrifugation and the supernatant was collected for absorbance scans to quantify the remaining COE in the supernatant. The uptake quantity was estimated by comparing the absorbance of the supernatant to the corresponding control COE solution (i.e. 10 μg/mL in PBS). The procedure for uptake measurements at the lower temperature is similar to the one described above, but with the exposure to COEs and centrifugation occurring at 4° C. instead of room temperature
The effect of molecular structures of the COEs on relative membrane affinity, estimated from the amount taken up by E. coli K12, was measured by absorption spectroscopy (FIG. 8a-c). These experiments utilised cell suspensions (OD=0.5) incubated for 2 hrs with 10 μg mL^−1 of various COE. Cells were removed by centrifugation, and the amount of uncomplexed COE was determined from the optical absorption spectra. The longest molecule, COE-D8, achieved the highest uptake in bacteria (72%). In contrast, only 3% of COE-D4 was absorbed while the uptake for COE-D6 was 16% (Table 1a).
Parallel experiments were carried out at 4° C. […] As a result of the reduced fluidity of cellular membrane at lower temperature, the uptake decreased to around 1% for COE-D4, 5% for COE-D6, and 34% for COE-D8.

E. coli K12 [4] = assay: Epifluorescence imaging of COE-treated E. coli K12; format: cell-based, Escherichia coli; details: 32 μg/mL COE; excitation 365 nm, emission 445/50 nm
Protocol: E. coli K-12 was grown, collected and washed according to the procedure described above (in the uptake measurements). COE solutions (in PBS) were added to a PBS suspension of E. coli K12 (OD600=1.0) to achieve final COE concentrations of 32 μg/mL. After incubating for 2 hrs at room temperature under shaking (200 rpm), a drop of suspension was placed on a microscope slide with a cover slip (#1.5, 0.17 mm thickness) and imaged using an inverted widefield epifluorescence microscope with Plan-Apochromat 100x/1.4 phase contrast with oil immersion lens (Carl Zeiss Axio Observer Z1 Inverted Microscope). The fluorescence microscopy images were observed by collecting the fluorescence signal of COEs using the DAPI dye channel (filter set 49 DAPI with excitation peak at 365 nm and emission at 445/50 nm). The bright field images of cells were obtained at exact same location using phase contrast transmitted light technique (Plan-Apochromat 100x/1.4 phase contrast with oil immersion lens). The cell images treated by different COEs were obtained under identical conditions with the matching irradiation frequency and exposure time.
Epi-fluorescence images of the COE-treated E. coli K12 cells were acquired by excitation at λ=365 nm and collecting emission at λ=445/50 nm.

[5] = ATCC700603, read-out: Growth inhibition Kp
[6] = ATCC700603, 32 μg/mL single dose, n=2, read-out: Growth inhibition Kp

Compound	inhibition at 32 µg/mL [1, 5] [%]	Activity: number of organism classes the compound has been found active against [2]	Uptake by E. coli K12 (E. coli K12 [3])	Uptake by E. coli K12 at 4° C. (E. coli K12 [3])	Fluorescence intensity of treated E. coli K12 cells relative to background (E. coli K12 [4])	Cell affinity relative to COE-D4 (E. coli K12 [3]; E. coli K12) [times]	inhibition at 32 µg/mL [1, 6] [%]
C[N+](C)(C)CCCCOc1ccc(/C=C/c2ccc(OCCCC[N+](C)(C)C)cc2)cc1 [COE-D4]	< 50	2	3% and 3 ± 2%	around 1%	indistinct image	–	–
C[N+](C)(C)CCCCCCOc1ccc(/C=C/c2ccc(OCCCCCC[N+](C)(C)C)cc2)cc1 [COE-D6]	< 50	3	16% and 16 ± 3%	~5%	intermediate fluorescence intensity	–	–
C[N+](C)(C)CCCCCCCCOc1ccc(/C=C/c2ccc(OCCCCCCCC[N+](C)(C)C)cc2)cc1 [COE-D8]	50 to 80	3	72% and 72 ± 5%	~34%	highest fluorescence intensities	30	–
CN(C)CC[N+](C)(C)CCCCCCOc1ccc(/C=C/c2ccc(OCCCCCC[N+](C)(C)CCN(C)C)cc2)cc1 [COE-D62N]	–	3	11±2%	–	–	–	< 50
CN(C)CC[N+](C)(C)CCCCCCCCOc1ccc(/C=C/c2ccc(OCCCCCCCC[N+](C)(C)CCN(C)C)cc2)cc1 [COE-D82N]	–	3	76±3%	–	–	–	> 80
